Data reported in US12504371B2, “System and method of dynamic micro-optical coherence tomography for mapping cellular functions” (The General Hospital Corporation, priority 2020, dated 2025).

What was measured:
[1] = tested on: MC38 murine tumor; assay: d-μOCT and CC3 IHC of freshly excised MC38 tumor treated with a drug-containing IMD; format: in vivo; conditions: IMD containing doxorubicin, 6 hrs; mid frequency Blue 0.47-0.63 Hz
Description: Dynamic-μOCT has been applied to human biopsies and chemotherapy-treated tumors grown in mouse models. In human biopsies, it is possible to use d-μOCT to distinguish microscopic features (e.g. cell nuclei, organelles, and cell membranes), cellular structures (e.g. squamous, glandular, inflammatory cells), and different cell types that were not evident in corresponding regular μOCT images. Ex vivo experiments were also performed using tumors grown with human cell lines. Custom microdevices containing small amounts of chemotherapeutic drugs were inserted into the tumors. For example, effects of intra-tumoral apoptosis were distinguished with d-μOCT and confirmed with histology images stained with cleaved caspase-3 (CC3), an apoptosis marker.
Panel (B) is from the same location in the sample. d-μOCT color codes: Red 0-0.08 Hz, Blue 0.47-0.63 Hz, Green 3.98-20 Hz. Bars, 200 μm.
d-μOCT enables high contrast, subcellular, cross-sectional motility imaging of intact human and animal tissues ex vivo. d-μOCT data (FIGS. 7, 9-16) were obtained using a μOCT benchtop system microscope that employs a supercontinuum-illuminated, common path, spectral domain OCT (SDOCT) system to obtain cross-sectional images with a resolution of 2 μm×2 μm (lateral)×1 μm (axial). The depth of focus was 300 μm, extended by annular apodization of the sample arm's objective lens. […]

[2] = tested on: freshly excised murine liver; assay: d-μOCT imaging of freshly excised murine liver in blebbistatin; format: cell-based; conditions: 30 μM blebbistatin, t=40 minutes vs t=0; Red 0-0.08 Hz, Green 3.98-20 Hz
From the text: d-μOCT enables high contrast, subcellular, cross-sectional motility imaging of intact human and animal tissues ex vivo. d-μOCT data (FIGS. 7, 9-16) were obtained using a μOCT benchtop system microscope that employs a supercontinuum-illuminated, common path, spectral domain OCT (SDOCT) system to obtain cross-sectional images with a resolution of 2 μm×2 μm (lateral)×1 μm (axial). The depth of focus was 300 μm, extended by annular apodization of the sample arm's objective lens. Images were acquired at an A-line (depth resolved reflectivity profile) rate of 20 KHz and spanned 1 mm laterally. All tissues samples were imaged fresh in culture media (10% FBS/DMEM+1% pen-strep) at 25° C. Two scan modes were used: 1) N=1000 images (512 A-lines/image) acquired sequentially over a period of 25 seconds (FIG. 8, scan mode 1) or 2) N=1000 A-lines acquired sequentially at each lateral scan point (FIG. 8, scan mode 2). Following local elastic unwarping to remove bulk motion caused by evaporation or vibration, a power spectrum estimate (periodogram) was computed on a pixel-per-pixel basis using Welch's method and frequency normalization. For scan mode 1, to represent the data in a single image, low (−0-0.1 Hz), middle (−0.5-0.7 Hz) and high (−4-20 Hz) frequency component images were merged into the RGB channels of a 24-bit color image. […]

SMILES	d-μOCT frequency content compared with cleaved caspase-3 (CC3) IHC [1]	change in d-μOCT intracellular motion frequency content [2]
COc1cccc2c1C(=O)c1c(O)c3c(c(O)c1C2=O)C[C@@](O)(C(=O)CO)C[C@@H]3O[C@H]1C[C@H](N)[C@H](O)[C@H](C)O1 [doxorubicin]	diffuse region of mid-frequency content (arrow) that mirrors cleaved caspase-3 (CC3) IHC	
Cc1ccc2c(c1)C(=O)C1(O)CCN(c3ccccc3)C1=N2 (centres unmarked) [blebbistatin]		dramatic reduction in high frequency (green) and increase in low frequency (red) intracellular motion
